molecular target: T1, Avi-tagged FL MALT-1 (Homo sapiens, UniProt Q9UDY8); assay: MALT-1 Fluorogenic Peptide Cleavage Assay (MALT1 inhibition assay); format: biochemical; details: Ac-LRSR-AMC peptide substrate; 30 min pre-incubation, 90 min reaction at room temperature; fluorescence
T1 construct: Avi-tagged FL MALT-1 (Pharmaron, stored at −70° C.); Avi-tag; purchased Pharmaron
T1 sequence (Q9UDY8 1-824): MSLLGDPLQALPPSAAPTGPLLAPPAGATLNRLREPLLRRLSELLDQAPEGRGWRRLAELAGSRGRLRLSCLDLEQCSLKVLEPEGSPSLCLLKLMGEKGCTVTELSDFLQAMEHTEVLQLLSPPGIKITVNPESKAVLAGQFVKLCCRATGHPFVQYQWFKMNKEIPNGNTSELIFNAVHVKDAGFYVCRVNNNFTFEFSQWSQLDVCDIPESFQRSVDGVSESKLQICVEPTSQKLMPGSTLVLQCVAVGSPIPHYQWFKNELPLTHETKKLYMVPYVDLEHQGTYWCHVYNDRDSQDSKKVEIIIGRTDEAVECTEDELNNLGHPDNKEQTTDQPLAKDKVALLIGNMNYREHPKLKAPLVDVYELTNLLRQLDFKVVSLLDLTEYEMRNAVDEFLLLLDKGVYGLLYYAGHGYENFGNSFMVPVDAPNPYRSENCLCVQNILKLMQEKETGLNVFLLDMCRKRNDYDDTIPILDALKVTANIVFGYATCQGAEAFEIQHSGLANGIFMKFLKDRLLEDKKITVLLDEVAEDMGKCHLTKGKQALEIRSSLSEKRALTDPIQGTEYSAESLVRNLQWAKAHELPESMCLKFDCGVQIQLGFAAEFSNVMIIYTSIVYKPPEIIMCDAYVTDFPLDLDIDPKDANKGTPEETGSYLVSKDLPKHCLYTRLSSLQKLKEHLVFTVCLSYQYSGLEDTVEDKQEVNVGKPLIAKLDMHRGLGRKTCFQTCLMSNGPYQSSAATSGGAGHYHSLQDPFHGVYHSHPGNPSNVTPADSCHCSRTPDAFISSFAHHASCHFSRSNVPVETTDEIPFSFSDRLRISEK
Outline: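 Full-length Avi-tagged enzyme preincubated 30 min at room temperature with compound (2% DMSO final) in HEPES pH 6.89 buffer with sodium citrate, TCEP, EDTA and CHAPS. Ac-LRSR-AMC substrate added at Km or 10×Km (working stocks 50 or […] μM); fluorescence (ex 342/em 441 nm) after 90 min; IC50 from sigmoidal fit.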

| SMILES | IC50 [nM] |
| --- | --- |
| O=C(Nc1ccnc(C(F)(F)F)c1)c1snc(-c2cccc3ocnc23)c1C1CC1 [I-162, 3-(1,3-benzoxazol-4-yl)-4-cyclopropyl-N-[2-(trifluoromethyl)pyridin-4-yl]-1,2-thiazole-5-carboxamide] | ≤ 400 |
| Cc1cc(NC(=O)c2snc(-c3cccc4ncsc34)c2C2CC2)ccn1 [I-104] | ≤ 400 |
| Cc1cc(NC(=O)c2snc(-c3ccccc3)c2C2CC2)cn(C)c1=O [I-41] | > 2500 |
| O=C(Nc1cnc(-n2nccn2)c(Cl)c1)c1snc(-c2cccc3ncccc23)c1C(F)(F)F [I-35, N-(5-CHLORO-6-(2H-1,2,3-TRIAZOL-2-YL) PYRIDIN-3-YL)-3-(QUINOLIN-5-YL)-4-(TRIFLUOROMETHYL)ISOTHIAZOLE-5-CARBOXAMIDE] | ≤ 400 |
| N#Cc1cc(NC(=O)c2snc(-c3ncccc3Cl)c2C2CC2)cnc1-n1nccn1 [I-28, 3-(3-CHLOROPYRIDIN-2-YL)-N-(5-CYANO-6-(2H-1,2,3-TRIAZOL-2-YL)PYRIDIN-3-YL)-4-CYCLOPROPYLISOTHIAZOLE-5-CARBOXAMIDE] | ≤ 400 |
| COc1nccc2c(-c3nsc(C(=O)Nc4cnc(-n5nccn5)c(Cl)c4)c3C(F)(F)F)cccc12 [I-106] | ≤ 400 |
| Cc1cc(NC(=O)c2snc(-c3ccccc3)c2C2CC2)ccn1 [I-196, 4-cyclopropyl-N-(2-methylpyridin-4-yl)-3-phenylisothiazole-5-carboxamide] | ≤ 400 |
| N#Cc1cc(NC(=O)c2snc(-c3cccc4ncccc34)c2C2CC2)ccc1C(=O)N1CC(O)C1 [I-180, N-(3-cyano-4-(3-hydroxyazetidine-1-carbonyl)phenyl)-4-cyclopropyl-3-(quinolin-5-yl)isothiazole-5-carboxamide] | ≤ 400 |
| O=C(Nc1ccnc(C(F)(F)F)c1)c1snc(-c2ccc3cncn3c2)c1C1CC1 [I-194, 4-cyclopropyl-3-(imidazo[1,5-a]pyridin-6-yl)-N-(2-(trifluoromethyl)pyridin-4-yl)isothiazole-5-carboxamide] | ≤ 400 |
| N#Cc1cc(NC(=O)c2snc(-c3ccccc3)c2C2CC2)ccc1C(=O)N1CC(O)C1 [I-32] | ≤ 400 |
| Cc1cc(-c2nsc(C(=O)Nc3ccnc(C(F)(F)F)c3)c2C2CC2)ccn1 [I-191, 4-cyclopropyl-3-(2-methylpyridin-4-yl)-N-(2-(trifluoromethyl)pyridin-4-yl)isothiazole-5-carboxamide] | ≤ 400 |
| Cn1cc2c(-c3nsc(C(=O)Nc4ccnc(C(F)(F)F)c4)c3C3CC3)cccc2n1 [I-157, 4-cyclopropyl-3-(2-methyl-2H-indazol-4-yl)-N-(2-(trifluoromethyl)pyridin-4-yl)isothiazole-5-carboxamide] | ≤ 400 |
| CC(C)c1nsc(C(=O)Nc2cnc(-n3nccn3)c(C#N)c2)c1C1CC1 [I-56, N-(5-CYANO-6-(2H-1,2,3-TRIAZOL-2-YL) PYRIDIN-3-YL)-4-CYCLOPROPYL-3-ISOPROPYLISOTHIAZOLE-5-CARBOXAMIDE] | ≤ 400 |
| O=C(Nc1ccc(C(=O)N2CC(O)C2)c(Cl)c1)c1snc(-c2cccc3nccn23)c1C1CC1 [I-190, N-(3-chloro-4-(3-hydroxyazetidine-1-carbonyl)phenyl)-4-cyclopropyl-3-(imidazo[1,2-a]pyridin-5-yl)isothiazole-5-carboxamide] | ≤ 400 |
| O=C(Nc1cncc(F)c1)c1snc(-c2ccccc2)c1C1CC1 [I-43, 4-CYCLOPROPYL-N-(5-FLUOROPYRIDIN-3-YL)-3-PHENYLISOTHIAZOLE-5-CARBOXAMIDE] | > 2500 |
| O=C(Nc1cnc(-n2nccn2)c(Cl)c1)c1snc(-c2cccc3ncccc23)c1C1CC1 [I-118] | ≤ 400 |
| Cn1ccc2cc(NC(=O)c3snc(-c4ccccc4)c3C3CC3)ccc2c1=O [I-98] | > 2500 |
| O=C(Nc1ccnc(C(F)(F)F)c1)c1snc(-c2cccc3ncsc23)c1C1CC1 [I-103] | ≤ 400 |
| O=C(Nc1cnc(-n2nccn2)c(C(F)F)c1)c1snc(-c2ccccc2)c1C1CC1 [I-13, 4-CYCLOPROPYL-N-(5-(DIFLUOROMETHYL)-6-(2H-1,2,3-TRIAZOL-2-YL)PYRIDIN-3-YL)-3-PHENYLISOTHIAZOLE-5-CARBOXAMIDE] | ≤ 400 |

Source: patent US20260124222A1, “ISOTHIAZOLYLCARBOXAMIDE COMPOUNDS AND THEIR USE IN THERAPY” (HOTSPOT THERAPEUTICS, INC., priority 2022, published 2026)
